Experiments:
ALOMY [1] = experiment: Pre-emergence herbicidal action against ALOMY; assay type: in vivo, Alopecurus myosuroides; settings: 320 g/ha, scored visually after 3 weeks vs untreated controls
In short: (§1)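 Visual scoring after 3 weeks in the greenhouse gives percent activity (100% = dead, 0% = like untreated). Compounds, formulated as WP or EC, were applied to the soil surface over freshly sown seeds in sandy loam, water rate 600 to 800 L/ha plus 0.2% wetting agent.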

ECHCG [2] = experiment: Pre-emergence herbicidal action against ECHCG; assay type: in vivo, Echinochloa crus-galli; settings: 320 g/ha, scored visually after 3 weeks vs untreated controls
In short: as §1

VIOTR [3] = experiment: Post-emergence herbicidal action against VIOTR; assay type: in vivo, Viola tricolor; settings: 80 g/ha, visual assessment about 3 weeks after treatment vs untreated controls
Description: Seeds of monocotyledonous and dicotyledonous weed and crop plants are laid out in sandy loam soil in wood-fiber pots, covered with soil and cultivated in a greenhouse under good growth conditions. 2 to 3 weeks after sowing, the test plants are treated at the one-leaf stage. The compounds of the invention, formulated in the form of wettable powders (WP) or as emulsion concentrates (EC), are then sprayed onto the green parts of the plants as aqueous suspension or emulsion at a water application rate equating to 600 to 800 l/ha with addition of 0.2% wetting agent. After the test plants have been left to stand in the greenhouse under optimal growth conditions for about 3 weeks, the action of the preparations is assessed visually in comparison to untreated controls (herbicidal action in percent (%): 100% activity=the plants have died, 0% activity=like control plants).

VIOTR [4] = experiment: Pre-emergence herbicidal action against VIOTR; assay type: in vivo, Viola tricolor; settings: 320 g/ha
In short: as §1

AVEFA [5] = experiment: Pre-emergence herbicidal action against AVEFA; assay type: in vivo, Avena fatua; settings: 320 g/ha, scored visually after 3 weeks vs untreated controls
In short: as §1

LOLRI [6] = experiment: Post-emergence herbicidal action against LOLRI; assay type: in vivo, Lolium rigidum; settings: 80 g/ha, visual assessment about 3 weeks after treatment vs untreated controls
In short: (§2)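 Sow in sandy loam and grow in the greenhouse for 2 to 3 weeks to the one-leaf stage. Spray the compound as an aqueous suspension or emulsion with 0.2% wetting agent, 600 to 800 l/ha water rate. Hold about 3 weeks, then score damage visually versus controls.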

DIGSA [7] = experiment: Pre-emergence herbicidal action against DIGSA; assay type: in vivo, Digitaria sanguinalis; settings: 320 g/ha, scored visually after 3 weeks vs untreated controls
In short: as §1

DIGSA [8] = experiment: Post-emergence herbicidal action against DIGSA; assay type: in vivo, Digitaria sanguinalis; settings: 80 g/ha, visual assessment about 3 weeks after treatment vs untreated controls
In short: as §2

AVEFA [9] = experiment: Post-emergence herbicidal action against AVEFA; assay type: in vivo, Avena fatua; settings: 80 g/ha, visual assessment after about 3 weeks
In short: as §2

MATIN = experiment: Pre-emergence herbicidal action against MATIN; assay type: in vivo; settings: 320 g/ha
In short: as §1

SETVI [10] = experiment: Post-emergence herbicidal action against SETVI; assay type: in vivo, Setaria viridis; settings: 80 g/ha, visual assessment about 3 weeks after treatment vs untreated controls
In short: as §2

LOLRI [11] = experiment: Pre-emergence herbicidal action against LOLRI (Table 8, titled post-emergence at 320 g/ha); assay type: in vivo, Lolium rigidum; settings: table stands in the pre-emergence section
In short: as §1

ALOMY [12] = experiment: Post-emergence herbicidal action against ALOMY; assay type: in vivo, Alopecurus myosuroides; settings: 80 g/ha, visual assessment after about 3 weeks
In short: as §2

ECHCG [13] = experiment: Post-emergence herbicidal action against ECHCG; assay type: in vivo, Echinochloa crus-galli; settings: 80 g/ha, visual assessment about 3 weeks after treatment vs untreated controls
In short: as §2

SETVI [14] = experiment: Pre-emergence herbicidal action against SETVI; assay type: in vivo, Setaria viridis; settings: 320 g/ha, scored visually after 3 weeks vs untreated controls
In short: as §1

VERPE = experiment: Pre-emergence herbicidal action against VERPE; assay type: in vivo, Veronica persica; settings: 320 g/ha
In short: as §1

POLCO = experiment: Pre-emergence herbicidal action against POLCO; assay type: in vivo, Polygonum convolvulus; settings: 320 g/ha
In short: as §1

AMARE = experiment: Pre-emergence herbicidal action against AMARE; assay type: in vivo, Amaranthus retroflexus; settings: 320 g/ha
In short: as §1

ABUTH [15] = experiment: Pre-emergence herbicidal action against ABUTH; assay type: in vivo, Abutylon threophrasti; settings: 320 g/ha
From the text: Seeds of monocotyledonous and dicotyledonous weed plants and crop plants are laid out in sandy loam soil in wood-fiber pots and covered with soil. The compounds of the invention, formulated in the form of wettable powders (WP) or as emulsion concentrates (EC), are then applied to the surface of the covering soil as aqueous suspension or emulsion at a water application rate equating to 600 to 800 L/ha with addition of 0.2% wetting agent.
After the treatment, the pots are placed in a greenhouse and kept under good growth conditions for the trial plants. The damage to the test plants is scored visually after a test period of 3 weeks by comparison with untreated controls (herbicidal activity in percent (%): 100% activity=the plants have died, 0% activity=like control plants).

ABUTH [16] = experiment: Post-emergence herbicidal action against ABUTH; assay type: in vivo, Abutylon threophrasti; settings: 80 g/ha, visual assessment about 3 weeks after treatment vs untreated controls
In short: as §2

With CC#Cc1cc(C)c(C2=C(OC(=O)OCC)C3(CCC(COCC)C3)NC2=O)c(OC)c1 (stereo not drawn) [Example P-49] the “Pre-emergence action against ALOMY in %” value (ALOMY [1]) was 100%, the “Pre-emergence action against ECHCG in %” value (ECHCG [2]) was 100% and the “Post-emergence action against VIOTR in %” value (VIOTR [3]) was 80%. The “Pre-emergence action against VIOTR in %” value (VIOTR [4]) was 100%, the “Pre-emergence action against AVEFA in %” value (AVEFA [5]) was 100% and the “Post-emergence action against LOLRI in %” value (LOLRI [6]) was 100%. The “Pre-emergence action against DIGSA in %” value (DIGSA [7]) was 100%, the “Post-emergence action against DIGSA in %” value (DIGSA [8]) was 90% and the “Post-emergence action against AVEFA in %” value (AVEFA [9]) was 90%. For the same compound, the “Pre-emergence action against MATIN in %” value (MATIN) was 80%, the “Post-emergence action against SETVI in %” value (SETVI [10]) was 100% and the “Pre-emergence herbicidal action against LOLRI in %” value (LOLRI [11]) was 100%. For the same compound, the “Post-emergence action against ALOMY in %” value (ALOMY [12]) was 100%, the “Post-emergence action against ECHCG in %” value (ECHCG [13]) was 100% and the “Pre-emergence action against SETVI in %” value (SETVI [14]) was 100%. For the same compound, the “Pre-emergence action against VERPE in %” value (VERPE) was 80%.
For C=CCOCC1CCC2(C1)NC(=O)C(c1c(C)cc(C#CC)cc1Cl)=C2OC(=O)OCC (stereo not drawn) [Example P-71], the “Pre-emergence action against ALOMY in %” value (ALOMY [1]) was 100%, the “Pre-emergence action against ECHCG in %” value (ECHCG [2]) was 100% and the “Post-emergence action against VIOTR in %” value (VIOTR [3]) was 100%. For the same compound, the “Pre-emergence action against VIOTR in %” value (VIOTR [4]) was 100%, the “Pre-emergence action against AVEFA in %” value (AVEFA [5]) was 90% and the “Post-emergence action against LOLRI in %” value (LOLRI [6]) was 80%. For the same compound, the “Pre-emergence action against DIGSA in %” value (DIGSA [7]) was 100%, the “Post-emergence action against DIGSA in %” value (DIGSA [8]) was 90% and the “Pre-emergence action against POLCO in %” value (POLCO) was 90%. The “Post-emergence action against AVEFA in %” value (AVEFA [9]) was 80%, the “Post-emergence action against SETVI in %” value (SETVI [10]) was 100% and the “Pre-emergence herbicidal action against LOLRI in %” value (LOLRI [11]) was 100%. The “Post-emergence action against ALOMY in %” value (ALOMY [12]) was 80%, the “Post-emergence action against ECHCG in %” value (ECHCG [13]) was 100% and the “Pre-emergence action against SETVI in %” value (SETVI [14]) was 100%. The “Pre-emergence action against VERPE in %” value (VERPE) was 90%.
In the case of C=CCOCC1CCC2(C1)NC(=O)C(c1c(C)cc(C#CC)cc1Cl)=C2OC(=O)OCC (stereo not drawn) [Example P-72], the “Pre-emergence action against ALOMY in %” value (ALOMY [1]) is reported as 90%, the “Pre-emergence action against ECHCG in %” value (ECHCG [2]) is reported as 100% and the “Post-emergence action against VIOTR in %” value (VIOTR [3]) is reported as 90%. The “Pre-emergence action against VIOTR in %” value (VIOTR [4]) was 100%, the “Post-emergence action against LOLRI in %” value (LOLRI [6]) was 80% and the “Pre-emergence action against DIGSA in %” value (DIGSA [7]) was 100%. The “Post-emergence action against DIGSA in %” value (DIGSA [8]) was 90%, the “Pre-emergence action against POLCO in %” value (POLCO) was 100% and the “Post-emergence action against SETVI in %” value (SETVI [10]) was 100%. For the same compound, the “Pre-emergence herbicidal action against LOLRI in %” value (LOLRI [11]) was 100%, the “Post-emergence action against ALOMY in %” value (ALOMY [12]) was 80% and the “Post-emergence action against ECHCG in %” value (ECHCG [13]) was 100%. For the same compound, the “Pre-emergence action against SETVI in %” value (SETVI [14]) was 100% and the “Pre-emergence action against VERPE in %” value (VERPE) was 80%.
With CC#Cc1cc(F)c(C2=C(OC(=O)OCC)C3(CCC(COCCC)C3)NC2=O)c(OC)c1 (stereo not drawn) [Example P-82] the “Pre-emergence action against ALOMY in %” value (ALOMY [1]) was 100%, the “Pre-emergence action against ECHCG in %” value (ECHCG [2]) was 100% and the “Post-emergence action against VIOTR in %” value (VIOTR [3]) was 80%. The “Pre-emergence action against VIOTR in %” value (VIOTR [4]) was 90%, the “Pre-emergence action against AVEFA in %” value (AVEFA [5]) was 90% and the “Post-emergence action against LOLRI in %” value (LOLRI [6]) was 100%. The “Pre-emergence action against DIGSA in %” value (DIGSA [7]) was 100%, the “Post-emergence action against DIGSA in %” value (DIGSA [8]) was 90% and the “Pre-emergence action against POLCO in %” value (POLCO) was 100%. The “Pre-emergence action against AMARE in %” value (AMARE) was 90%, the “Post-emergence action against SETVI in %” value (SETVI [10]) was 100% and the “Pre-emergence herbicidal action against LOLRI in %” value (LOLRI [11]) was 100%. For the same compound, the “Post-emergence action against ALOMY in %” value (ALOMY [12]) was 100%, the “Post-emergence action against ECHCG in %” value (ECHCG [13]) was 100% and the “Pre-emergence action against SETVI in %” value (SETVI [14]) was 100%.
In the case of CC#Cc1cc(C)c(C2=C(OC(=O)OCC)C3(CCC(COCCC)C3)NC2=O)c(Cl)c1 (stereo not drawn) [Example P-87], the “Pre-emergence action against ALOMY in %” value (ALOMY [1]) is reported as 100%, the “Pre-emergence action against ECHCG in %” value (ECHCG [2]) is reported as 100% and the “Pre-emergence action against VIOTR in %” value (VIOTR [4]) is reported as 90%. For the same compound, the “Pre-emergence action against AVEFA in %” value (AVEFA [5]) was 100%, the “Post-emergence action against LOLRI in %” value (LOLRI [6]) was 100% and the “Pre-emergence action against ABUTH in %” value (ABUTH [15]) was 80%. For the same compound, the “Pre-emergence action against DIGSA in %” value (DIGSA [7]) was 100%, the “Post-emergence action against DIGSA in %” value (DIGSA [8]) was 100% and the “Pre-emergence action against POLCO in %” value (POLCO) was 80%. For the same compound, the “Post-emergence action against AVEFA in %” value (AVEFA [9]) was 80%, the “Post-emergence action against SETVI in %” value (SETVI [10]) was 100% and the “Pre-emergence herbicidal action against LOLRI in %” value (LOLRI [11]) was 100%. For the same compound, the “Post-emergence action against ALOMY in %” value (ALOMY [12]) was 90%, the “Post-emergence action against ECHCG in %” value (ECHCG [13]) was 100% and the “Pre-emergence action against SETVI in %” value (SETVI [14]) was 100%. For the same compound, the “Pre-emergence action against VERPE in %” value (VERPE) was 80% and the “Post-emergence action against ABUTH in %” value (ABUTH [16]) was 80%.

From patent US20220386606A1, “SPECIFICALLY SUBSTITUTED 3-PHENYL-5-SPIROCYCLOPENTYL-3-PYRROLIN-2-ONES AND THEIR USE AS HERBICIDES” (Bayer Aktiengesellschaft, priority 2019, published 2022)
